Experimental data taken from patent US20050043534A1, “Modulators of ceramidase and methods of used based thereon” (priority 2001, published 2005).
Where “and” joins values, the source holds several entries; their conditions need not be identical. Equal values may be shown once.

Tests used:
[1] = system: human embryonal kidney cells HEK-293; test: MTT cell viability assay, HEK-293 cells; type: cell-based; details: 18 hours treatment
Protocol: MCF7 human breast carcinoma cells (ATCC No. HTB-22) and human embryonal kidney cells HEK-293 (ATCC No. CRL-1573) were purchased from American Type Culture Collection.
To investigate the effect of the compound of interest on each of these cell lines, on Day 1, about 50 μL (about 5,000 cells) of the MCF7 or HEK-293 cells were plated down into 96-well plate which contains RPMI 1640 1× (MOD) media (purchased from Media Tech) containing L-glutamine and 10% fetal calf serum (purchased from Gibco). The cells were contained at 37° C. in a humidified atmosphere containing 5% CO2 overnight. On Day 2, the cells were treated with the compound of interest which was dissolved in 100% ethanol. To facilitate dissolution of the compound of interest, a 98% ethanol/2% dodecane can be used as the solvent instead of 100% ethanol. […] The cells were treated with the compound of interest for 18 hours after which the effect on cell viability was measured by MTT assay (Mossman, T. (1983) J. Immuno. Meth. 65, 55-63; and Berridge, M. V. and Tan, A. S. (1993) Archives of Biochemistry & Biophysics, 303, 474-482) as described below.
MTT Assay: • (1) Add to each well 25 μL of MTT stock solution (5 mg/mL in PBS); • (2) Incubate for 5 hours; • (3) Add 100 μL of lysing buffer (20% SDS (w/v), 50% N,N-Dimethyl formamide (v/v)) and stand overnight; • (4) read plate at 595 nm.

[2] = molecular target: mitochondrial ceramidase (Rattus norvegicus, UniProt Q91XT9); test: mitochondrial ceramidase (mt-CDase) activity, radioactive assay or HPLC assay; type: biochemical
Chain of mitochondrial ceramidase (Q91XT9 whole entry): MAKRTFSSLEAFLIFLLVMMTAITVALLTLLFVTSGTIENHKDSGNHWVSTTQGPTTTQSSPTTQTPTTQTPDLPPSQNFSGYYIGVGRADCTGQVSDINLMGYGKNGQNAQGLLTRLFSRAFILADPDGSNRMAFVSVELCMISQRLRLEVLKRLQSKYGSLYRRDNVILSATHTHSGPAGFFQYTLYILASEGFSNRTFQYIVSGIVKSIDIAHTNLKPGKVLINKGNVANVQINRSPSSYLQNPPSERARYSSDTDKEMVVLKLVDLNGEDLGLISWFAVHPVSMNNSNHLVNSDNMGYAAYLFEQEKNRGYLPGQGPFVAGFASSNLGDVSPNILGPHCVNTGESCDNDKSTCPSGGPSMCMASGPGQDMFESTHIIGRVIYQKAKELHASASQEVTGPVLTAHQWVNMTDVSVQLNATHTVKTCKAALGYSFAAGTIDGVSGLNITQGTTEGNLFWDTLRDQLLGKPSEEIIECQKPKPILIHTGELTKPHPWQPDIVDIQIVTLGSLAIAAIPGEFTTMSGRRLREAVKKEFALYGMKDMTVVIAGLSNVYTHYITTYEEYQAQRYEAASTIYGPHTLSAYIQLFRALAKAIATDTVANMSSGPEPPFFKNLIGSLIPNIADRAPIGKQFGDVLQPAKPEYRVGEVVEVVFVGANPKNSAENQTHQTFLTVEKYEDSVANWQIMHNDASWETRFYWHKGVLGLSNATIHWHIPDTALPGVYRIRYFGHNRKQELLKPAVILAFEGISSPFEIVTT
Protocol: The enzymatic activity of mitochondrial ceramidase was determined by either one of the two following methods:
a. Radioactive assay: The mt-CDase activity was determined by measuring the release of radioactive fatty acid from tritiated ceramide ([^3H]-C16-Cer), labeled in the acyl chain. Briefly, organic solutions of ceramide and its analogues were initially mixed together, solvents were completely evaporated under nitrogen, then the dried lipids were dispersed in Triton-X 100 by sonication and vigorous vortexing. The reaction assay contained (in a final volume of 200 μl): enzyme (5-10 ng) and 10 nmoles of tritiated C16-ceramide (1×10^5 dpm) delivered in 100 μl of 1% Triton X-100 micelles in a glycine buffer pH 9.5 (200 mM).
b. HPLC-assay: The Mt-CDase activity was also determined by measuring the amount of sphingosine released. Basically the assay was initially the same as described above but using non-radioactive ceramide. The reaction was stopped with 800 μl of chloroform: methanol (2:1 v/v) mixture followed by the addition of phyto-sphingosine (0.5 nmoles) and dihydro-sphingosine (1 nmole) as internal standard and carrier, respectively. The reaction mix was then extracted with NaOH (50 μl, 1N), and the lower chloroform layer containing the sphingosine was further washed with water (100 μl) and dried. The released sphingosine was quantified as the ortho-phthaldehyde (OPA) derivatives as described (30). […] The solvent system was methyl alcohol: potassium phosphate buffer (5 mM), pH 7.0 (90:10 v/v) at a flow rate of 1 ml/min. […] Activity was determined relative to the phytosphingosine OPA peak.
The effects of various compounds of the invention which are stereochemical and structural analogues of ceramide and sphingosine on mt-CDase were investigated. […] Results were expressed as percent of the control ceramidase activity.

[3] = system: MCF7 human breast carcinoma cells; test: MTT cell viability assay, MCF7 cells; type: cell-based; details: 18 hours treatment
Protocol: The cells were contained at 37° C. in a humidified atmosphere containing 5% CO2 overnight. On Day 2, the cells were treated with the compound of interest which was dissolved in 100% ethanol. […] The control is a sample without the compound of interest.

[4] = system: mouse fibroblast cells, L929; test: TNFα-induced PGE2 release from L929 cells; type: cell-based; details: preliminary data
From the text: Interleukin-1 is a major inducer of inflammation and TNF is an important regulator of the reaction. Both cytokines can activate ceramidase, and thus inhibiting the activity of ceramidase can result in an anti-inflammatory effect. This may involve the prevention of the formation of sphingosine and sphingosine phosphate which have pro-inflammatory effects. Also, inhibition of ceramidase may prevent the hyperproliferation of immune cells that are important for inflammation. […] The release of PGE2 is also shown to be inhibited by D-(N-myristolyamino)-1-phenyl-1-propanol), D-MAPP, which is an inhibitor of one of the ceramidase. This observation may be important for inhibiting inflammatory reactions that occur in conditions, such as but not limited to rheumatoid arthritis. Thus, it is possible to treat or prevent inflammation by regulating the level of cellular ceramide using the method of the invention. As discussed above, ceramide level can be increased by administering compounds of the present invention that can inhibit mitochondrial ceramidase.

SMILES: CCCCCCCCCCCCC/C=C/[C@@H](O)[C@H](CO)NC(=O)NCCCCCCCCCCCCCCCC [Compound C16-urea-Cer, (2S, 3R,4E)-N-[2-(1,3-Dihydroxy-4E-octadecene)]-N′-hexadecane-urea]
- effect on cell growth and proliferation (in words) [1]: potent inhibitor of cell growth and proliferation
- hydrolysis by mt-CDase (substrate or not, in words) [2]: not a substrate
- Estimated IC50 (mole %) ([2]; Table 1, ceramide analogues, hydrolysis of D-erythro-C16 or C18-ceramide at 0.625 mole % (50 μM)): 0.33 mole %
- effect on mt-CDase activity (in words) ([2]; concentrations as stated at the place): potent inhibitor
- inhibition at 50 µM ([2]; inhibitor at 0.625 mole % (50 μM), read-out: inhibition (maximal inhibition) of mt-CDase activity): 75%
- IC50 ([2]; substrate D-erythro-ceramide 50 μM): 25 µM
- IC50 (50% inhibition of mt-CDase activity) ([2]; substrate D-erythro-ceramide 0.625 mole %): 0.33 mole % and 0.31 mole %
- type of inhibition (double reciprocal analysis: Km increased, Vmax unchanged) ([2]; varying D-erythro-ceramide concentration): competitive inhibitor
- effect on cell growth and proliferation (in words) [3]: potent inhibitor of cell growth and proliferation
- melting point: 105 to 106 °C

SMILES: CCCCCCCCCCCCCC(=O)NC(C)C(O)c1ccccc1 [D-MAPP]
- release of PGE2 [4]: inhibited
